Assay results published in US20060204443A1, “Methods for tumor treatment using dendrimer conjugates” (The Government of the USA as represented by the Secretary …, priority 2005, published 2006).
Entries after “also recorded” stand apart in the source; their conditions may differ.

Assays:
[1] = system: deep lymphatic system (lymph nodes, thoracic duct); experiment: Whole-body dynamic 3D-micro-MRL after intracutaneous injection, normal mice (Examples 2, 3); format: in vivo; details: for Number of Mice in Which the Thoracic Duct was Visualized/Number of Mice Examined: Normal Mice, 0.1 μmolGd intracutaneously; for Axillary lymph node-to-background (muscle) signal intensity ratio / Axillary lymph node-to-liver signal intensity ratio: all time points examined; for Axillary lymph node-to-background (muscle) signal intensity ratio: FIG. 11A; for Axillary lymph node-to-liver signal intensity ratio: FIG. 11B
Description: (§1) The mice were anesthetized with 1.15 mg sodium pentobarbital (Dainabot, Osaka, Japan) by intraperitoneal injection, and then injected intracutaneously with 0.1 μmolGd of PAMAM-G8, DAB-G5, PAMAM-G4, Gadomer-17, or GPDM into four middle phalanges in all four extremities. Dynamic micro-MR images were obtained using a 1.5-Tesla superconductive magnet unit (Signa LX, General Electric Medical System, Milwaukee, Wis.) with a round birdcage type coil of 3 cm diameter fixed by a custom-made coil holder. Four to eight female mice (7 weeks old, 18-21 g body weight) in each group were used and each contrast agent was prepared at least three separate times for these imaging studies. The mice were wrapped with gauze to stabilize their body temperature and were placed at the center of the coils.
(§2) A 3D-fast spoiled gradient echo (3D-fastSPGR (efgre3d package; Signa Horizon, GE); repetition time/echo time 28.5/7.9 msec; inversion time 65 msec; 31.2 kHz, flip angle 30°, four excitations; 40 slice-encoding steps; scan time 7 min 36 seconds) with chemical shift fat-suppression was used 10, 20, 30, and 45 min after injection of the contrast agents. The coronal images were reconstructed with 0.6-mm section thickness at every 0.3-mm. The field of view was 6×3 cm and the size of the matrix was 512×256. The intensities of the regions of interest (for example, a whole axillary lymph node, and the liver) were measured, and then the time-intensity curves analyzed. The data were expressed as the axillary lymph node-to-muscle and the axillary lymph node-to-liver ratios. The slice data were processed into 3D images using the MIP method with the same window and level (window 3500 and level 2300) (Advantage Windows, General Electric Medical System). Two board-certified radiologists separately read a set of stereo views of 3D-MRL for all studies, and estimated the visualization of the thoracic duct. After imaging, the mice were sacrificed by carbon dioxide inhalation.
In this example, the PAMAM-G8 contrast agent is compared to GPDM. PAMAM-G8 was prepared as described in Example 2, and GPDM was purchased (Schering AG, Berlin, Germany). Animal models, administration of the contrast agents, and 3D-micro-MRL were as described in Example 2.

[2] = system: axillary lymph nodes and their lymphatic vessels; experiment: Dynamic 3D-MR lymphangiography, effect of contrast agent size (Example 4); format: in vivo, athymic nu/nu mice; details: for Visualization of axillary lymph nodes and their lymphatic vessels: 6-36 minutes post-injection into mammary gland; for Depiction of lymphatic vessels / Signal intensity within the axillary lymph nodes in comparison to G6 and G8 / Signal intensity of adjacent muscle in comparison to G6 and G8: mouse, in vivo; for Signal intensity within the axillary lymph node (enhancement ratio, lymph node / adjacent muscle): 0.15 μmolGd/5 μL
Description: Mice were anesthetized with 1.15 mg sodium pentobarbital (Dainabot, Osaka, Japan) by intraperitoneal injection. Then 0.15 μmolGd/5 μL of all nano-size contrast agents or 0.45 μmolGd/5 μL of Gd-[DTPA]-dimeglumine were injected into normal mammary glands or mammary tissue surrounding a tumor. Dynamic MR images were obtained using a 1.5-Tesla superconductive magnet unit (Signa LX, General Electric Medical System, Milwaukee, Wis.) with a birdcage type coil of 3 cm diameter fixed by a custom-made coil holder. The mice were wrapped with gauze to conserve their body temperature and were placed at the center of the coils.
In order to evaluate the effect of contrast agent molecular size on the ability to visualize the lymphatics and lymph nodes of athymic nu/nu mice, thirty five non-tumor bearing nu/nu mice were divided into seven groups (n=5). The mice were evaluated with 3D-fast spoiled gradient echo (3D-fastSPGR (efgre3d package; Signa Horizon, GE); repetition time/echo time 19.2/7.2 msec; inversion time 47 msec; bandwidth 31.2 kHz, flip angle 30°, 4 excitations; 36 slice encoding steps; scan time 4 minutes 49 seconds) with chemical shift fat-suppression at 6, 12, 18, 24, 30, and 36 minutes post-injection of each contrast agent. The coronal images were reconstructed with 0.6-mm section thickness every 0.3-mm. The field of view was 8×4 cm and the size of the matrix was 512×256. The slice data were processed into 3D images using the maximum intensity projection (MIP) method with the same window and level (window 3500 and level 2100) (Advantage Windows, General Electric Medical System). The enhancement ratio was calculated by taking the average signal intensity in the axillary lymph node and dividing it by the signal intensity in the adjacent muscle.

[3] = system: lymphatic vessels and lymph nodes of disease model mice; experiment: 3D-micro-MRL in lymphatic disease models (Concanavalin A lymphangitis, IL-15 transgenic); format: in vivo; details: for Visualization of lymph nodes in lymphoproliferation/lymphoma: 45 minutes after injection
Description: To generate a lymphangitis model, Concanavalin A ([…]) (Sigma, St. Louis, Mo.) was injected intravenously into C57BL6 mice (NCI, Frederick, Md.) 24 hours before MRI was performed.
Eight- to 10-month old IL-15 transgenic mice (on a C57BL6 background) were used as a chronic lymphoproliferative/neoplastic disease model because they manifested selective expansion of NK, CD8^+NK-T, γδIELs, and CD8 T cells in the periphery. Most of the lymph nodes collected from an aged IL-15 transgenic mouse were enlarged in size. The lesion of proliferated monoclonal lymphocytes often involved the lung and the subcutaneous lymphatic tissue.
as §1, §2

[4] = in vivo
[5] = Example 2, normal mice, 10-45 min after injection

In the case of “DAB-Am-128-(Gd-1B4M)128 dendrimer conjugate [DAB-G5]”, the “Number of Mice in Which the Thoracic Duct was Visualized/Number of Mice Examined” value ([1]; 10 min) is reported as 3/5, the “Number of Mice in Which the Thoracic Duct was Visualized/Number of Mice Examined” value ([1]; 20 min) is reported as 2/5 and the “Number of Mice in Which the Thoracic Duct was Visualized/Number of Mice Examined” value ([1]; 30 min) is reported as 0/5. The “Number of Mice in Which the Thoracic Duct was Visualized/Number of Mice Examined” value ([1]; 45 min) was 0/5, the “Axillary lymph node-to-background (muscle) signal intensity ratio” value [1] was “significantly higher than that obtained with either PAMAM-G8 or PAMAM-G4” and the “Axillary lymph node-to-liver signal intensity ratio” value [1] was “nearly equivalent, but were significantly higher than that measured with GPDM”. The “Visualization of axillary lymph nodes and their lymphatic vessels” value [2] was “superior to the G2 and G4 PAMAM dendrimers; also recorded: better contrast than PAMAM dendrimer-based agents of similar sizes”, the “Depiction of lymphatic vessels” value [2] was “neither agent depicted lymphatic vessels” and the “Signal intensity within the axillary lymph nodes in comparison to G6 and G8” value [2] was “lower signal intensities”. The “Visualization of lymph nodes in lymphoproliferation/lymphoma” value ([3]; IL-15 transgenic mice, FIG. 13) was “considerable multiple lymph node swellings with central filling defects”.

In the case of Gadomer-17 [reference compound], the “Visualization of deep lymph nodes” value [1, 5] is reported as “allowed visualization of the deep lymph nodes, albeit not as clearly and brightly as the dendrimer-based agents”, the “Number of Mice in Which the Thoracic Duct was Visualized/Number of Mice Examined” value ([1]; 10 min) is reported as 2/5 and the “Number of Mice in Which the Thoracic Duct was Visualized/Number of Mice Examined” value ([1]; 20 min) is reported as 2/5. The “Number of Mice in Which the Thoracic Duct was Visualized/Number of Mice Examined” value ([1]; 30 min) was 1/5, the “Number of Mice in Which the Thoracic Duct was Visualized/Number of Mice Examined” value ([1]; 45 min) was 1/5 and the “Axillary lymph node-to-background (muscle) signal intensity ratio” value [1] was “significantly higher than that acquired with GPDM”. For the same substance, the “Axillary lymph node-to-liver signal intensity ratio” value [1] was “nearly equivalent, but were significantly higher than that measured with GPDM”, the “Visualization of axillary lymph nodes and their lymphatic vessels” value [2] was “superior to the G2 and G4 PAMAM dendrimers; also recorded: better contrast than PAMAM dendrimer-based agents of similar sizes” and the “Depiction of lymphatic vessels” value [2] was “neither agent depicted lymphatic vessels”. The “Signal intensity of adjacent muscle in comparison to G6 and G8” value [2] was “significantly higher than those measured with G6 and G8”, the “Signal intensity within the axillary lymph nodes in comparison to G6 and G8” value [2] was “lower signal intensities” and the “Clearance from the body” value ([4]; iv) was “rapidly cleared from the body”.

With “PAMAM-G4D-(Gd-1B4M)64 dendrimer conjugate” the “Number of Mice in Which the Thoracic Duct was Visualized/Number of Mice Examined” value ([1]; 10 min) was 4/5, the “Number of Mice in Which the Thoracic Duct was Visualized/Number of Mice Examined” value ([1]; 20 min) was 4/5 and the “Number of Mice in Which the Thoracic Duct was Visualized/Number of Mice Examined” value ([1]; 30 min) was 3/5. For the same substance, the “Number of Mice in Which the Thoracic Duct was Visualized/Number of Mice Examined” value ([1]; 45 min) was 2/5, the “Axillary lymph node-to-background (muscle) signal intensity ratio” value [1] was “significantly higher than that measured with Gadomer-17 and GPDM” and the “Axillary lymph node-to-liver signal intensity ratio” value [1] was “significantly higher than that acquired with PAMAM-G8, DAB G-5, or Gadomer-17”. For the same substance, the “Visualization of axillary lymph nodes and their lymphatic vessels” value [2] was “able to depict the lymph nodes only faintly and then only up to 12 minutes post-injection”, the “Signal intensity of adjacent muscle in comparison to G6 and G8” value ([2]; listed as G4) was “significantly higher than those measured with G6 and G8; also recorded: higher signal in the adjacent muscle” and the “Signal intensity within the axillary lymph nodes in comparison to G6 and G8” value ([2]; listed as G4) was “lower signal intensities; also recorded: significantly lower signal”. The “Survival in the blood circulation” value [4] was “short survival in the blood circulation due to a rapid renal excretion without significant retention in other organs”.

In the case of “PAMAM-G7D-(Gd-1B4M)1024 dendrimer conjugate [PAMAM-G8]”, the “Visualization of lymphatic vessels” value ([1]; Example 2) is reported as “better visualized with PAMAM-G8 compared to all other agents examined”, the “Visualization by a radiologist of the thoracic duct” value ([1]; Example 2, all times after administration) is reported as “in all mice at all times after administration” and the “Visualization of deep lymph nodes” value [1, 5] is reported as “enabled most of the deep lymph nodes to be visualized”. For the same substance, the “Visualization of deep lymph nodes” value ([1]; Example 3, FIG. 15) was “most deep lymph nodes throughout the body were visualized”, the “Visualization of the thoracic duct” value ([1]; Example 3, FIG. 15) was “visualized in all six mice” and the “Number of Mice in Which the Thoracic Duct was Visualized/Number of Mice Examined” value ([1]; 10 min) was 10/10. For the same substance, the “Number of Mice in Which the Thoracic Duct was Visualized/Number of Mice Examined” value ([1]; 20 min) was 10/10, the “Number of Mice in Which the Thoracic Duct was Visualized/Number of Mice Examined” value ([1]; 30 min) was 10/10 and the “Number of Mice in Which the Thoracic Duct was Visualized/Number of Mice Examined” value ([1]; 45 min) was 10/10. The “Axillary lymph node-to-background (muscle) signal intensity ratio” value [1] was “significantly higher than that measured with Gadomer-17 and GPDM”, the “Axillary lymph node-to-liver signal intensity ratio” value [1] was “nearly equivalent, but were significantly higher than that measured with GPDM” and the “Visualization of axillary lymph nodes and their lymphatic vessels” value [2] was “visualized at all time points in all 10 mice”. For the same substance, the “Signal intensity within the axillary lymph node (enhancement ratio, lymph node / adjacent muscle)” value ([2]; 6 minutes post-injection) was 1.7±0.2, the “Signal intensity within the axillary lymph node (enhancement ratio, lymph node / adjacent muscle)” value ([2]; 12 minutes post-injection) was 2.3±0.2 and the “Leakage out of the lymphatic vessels” value [4] was “minimal leakage out of the lymphatic vessels”. The “Visualization of lymphatic vessels in lymphangitis” value ([3]; Concanavalin A lymphangitis model, FIG. 12) was “demonstrated the remarkable dilation of the lymphatic vessels throughout the body, especially in the liver”, the “Visualization of lymph nodes in lymphoproliferation/lymphoma” value ([3]; IL-15 transgenic mice, FIG. 13) was “considerable multiple lymph node swellings with central filling defects” and the “Visualization of dilation of lymphatic vessels” value ([3]; IL-15 transgenic mice, FIG. 13) was “best visualized with PAMAM-G8”.
